# Experimental data as given in ChEMBL document CHEMBL4368885, “Quinolone-isoniazid hybrids: synthesis and preliminary in vitro cytotoxicity and anti-tuberculosis evaluation” (Medchemcomm, 2019).
# pIC50: −log10 of the molar value.
# What was measured:
# [1] = system: Mycobacterium tuberculosis; test: microbe, parasite or virus in culture; conditions: H37Rv
# Description: Antitubercular activity against Mycobacterium tuberculosis H37Rv after 7 to 14 days by broth micro dilution method
# [2] = Cytotoxicity against human HeLa cells assessed as cell viability at 20 uM after 24 hrs by resazurin dye-based fluorescence assay relative to control; conditions: read-out: Activity
# [3] = system: HeLa; test: Cytotoxicity against human HeLa cells assessed as reduction in cell viability after 24 hrs by resazurin dye-based fluorescence assay
# [4] = Half life in pooled human liver microsomes at 1 uM by LC-MS/MS analysis; type: ADME, Microsome
# [5] = Half life in rat liver microsomes at 1 uM by LC-MS/MS analysis; type: ADME, Microsome
# [6] = Intrinsic clearance in rat liver microsomes assessed per mg protein at 1 uM by LC-MS/MS analysis; type: ADME, Microsome
# [7] = Intrinsic clearance in pooled human liver microsomes assessed per mg protein at 1 uM by LC-MS/MS analysis; type: ADME, Microsome
# [8] = Hepatic extraction ratio in mouse liver microsomes at 1 uM by LC-MS/MS analysis; type: ADME, Microsome; conditions: read-out: ERH
# [9] = Half life in mouse liver microsomes at 1 uM by LC-MS/MS analysis; type: ADME, Microsome
# [10] = Aqueous solubility in pH 6.5 PBS at 10 to 220 uM after 20 hrs by nephelometric analysis; type: physicochemical
# [11] = Metabolic stability in rat liver microsomes assessed as percentage of compound remaining at 1 uM by LC-MS/MS analysis; type: ADME, Microsome; conditions: read-out: Stability
# [12] = Hepatic extraction ratio in pooled human liver microsomes at 1 uM by LC-MS/MS analysis; type: ADME, Microsome; conditions: read-out: ERH
# [13] = Metabolic stability in mouse liver microsomes assessed as percentage of compound remaining at 1 uM by LC-MS/MS analysis; type: ADME, Microsome; conditions: read-out: Stability
# [14] = Metabolic stability in pooled human liver microsomes assessed as percentage of compound remaining at 1 uM by LC-MS/MS analysis; type: ADME, Microsome; conditions: read-out: Stability
# [15] = Intrinsic clearance in mouse liver microsomes assessed per mg protein at 1 uM by LC-MS/MS analysis; type: ADME, Microsome
# [16] = Hepatic extraction ratio in rat liver microsomes at 1 uM by LC-MS/MS analysis; type: ADME, Microsome; conditions: read-out: ERH
Compound,MIC90 [1] [µM],"viability at 24 h, 20 µM [2] [%]",also measured
C/C(=N\NC(=O)c1ccncc1)c1ccc2c(c1)c(=O)c(C(=O)NCCNCCO)cn2Cc1ccc(Br)cc1,0.8,< 75,–
CCOC(=O)c1cn(CC)c2ccc(/C(C)=N/NC(=O)c3ccncc3)cc2c1=O,0.2,< 75,–
COCCNC(=O)c1cn(Cc2ccccc2)c2ccc(C(C)=O)cc2c1=O,43.4,< 75,–
CC[C@H]1CN2CCc3cc(OC)c(OC)cc3[C@@H]2C[C@@H]1C[C@H]1NCCc2cc(OC)c(OC)cc21 [EMETINE],–,–,pIC50 [3]: 7.82
NNC(=O)c1ccncc1 [ISONIAZID],0.2,–,–
CC(=O)c1ccc2c(c1)c(=O)c(C(=O)NCCNCCO)cn2Cc1ccc(Cl)cc1Cl,125,< 75,–
C/C(=N\NC(=O)c1ccncc1)c1ccc2c(c1)c(=O)c(C(=O)NCCOCCO)cn2Cc1ccc(Br)cc1,2.7,< 75,–
C/C(=N\NC(=O)c1ccncc1)c1ccc2c(c1)c(=O)c(C(=O)NCCNCCO)cn2Cc1ccccc1,2,< 75,–
CCn1cc(C(=O)NCCOC)c(=O)c2cc(/C(C)=N/NC(=O)c3ccncc3)ccc21,0.8,< 75,half-life at 1 µM [4]: > 2.5 h; half-life at 1 µM [5]: > 2.5 h; CLH [6]: 18.7 µg/min; CLH [7]: 13.3 µg/min; hepatic extraction ratio at 1 µM [8]: < 0.49; half-life at 1 µM [9]: 1.33 h; solubility kinetic at 20 h [10]: 95 µM; remaining at 1 µM [11]: 87%; hepatic extraction ratio at 1 µM [12]: < 0.42; remaining at 1 µM [13]: 77%; remaining at 1 µM [14]: 90.6%; CLH [15]: 35.3 µg/min; hepatic extraction ratio at 1 µM [16]: < 0.3
CO[C@H]1/C=C/O[C@@]2(C)Oc3c(C)c(O)c4c(O)c(c(/C=N/N5CCN(C)CC5)c(O)c4c3C2=O)NC(=O)/C(C)=C\C=C\[C@H](C)[C@H](O)[C@@H](C)[C@@H](O)[C@@H](C)[C@H](OC(C)=O)[C@@H]1C [RIFAMPIN],0.06,–,–
COCCNC(=O)c1cn(Cc2ccc(Cl)cc2Cl)c2ccc(/C(C)=N/NC(=O)c3ccncc3)cc2c1=O,4.8,< 75,–
CCn1cc(C(=O)NCCCn2ccnc2)c(=O)c2cc(/C(C)=N/NC(=O)c3ccncc3)ccc21,7.8,< 75,–
CCOC(=O)c1cn(C)c2ccc(/C(C)=N/NC(=O)c3ccncc3)cc2c1=O,0.9,< 75,–
C/C(=N\NC(=O)c1ccncc1)c1ccc2c(c1)c(=O)c(C(=O)NCCNCCO)cn2Cc1ccc(C(F)(F)F)cc1,1.8,< 75,–
